# Measured values from the NIST ThermoML archive (doi:10.1021/je100554g).
# ± gives the expanded uncertainty stated by the source.
# How the values were obtained:
# [1] = 101.33 kPa, Liquid, Pulse-echo method
# [2] = xn = mol fraction of the nth substance listed; conditions: 101 kPa, Liquid, Pulse-echo method
structure (smiles),measurement,setting,value
[Cl-].[Li+] [lithium chloride],speed of sound,[1]; 950 K,1988 ± 21 m/s
same,speed of sound,[1]; 976 K,1973 ± 20 m/s
same,speed of sound,[1]; 1003 K,1945 ± 20 m/s
same,speed of sound,[1]; 1030 K,1924 ± 20 m/s
same,speed of sound,[1]; 1062 K,1894 ± 20 m/s
same,speed of sound,[1]; 1082 K,1879 ± 19 m/s
same,speed of sound,[1]; 1110 K,1858 ± 19 m/s
same,speed of sound,[1]; 1148 K,1825 ± 19 m/s
same,speed of sound,[1]; 1181 K,1791 ± 19 m/s
[Cl][Nd]([Cl])[Cl] [neodymium(III) chloride],speed of sound,[1]; 1044 K,1248 ± 14 m/s
same,speed of sound,[1]; 1045 K,1259 ± 14 m/s
same,speed of sound,[1]; 1075 K,1237 ± 13 m/s
same,speed of sound,[1]; 1083 K,1227 ± 13 m/s
same,speed of sound,[1]; 1099 K,1227 ± 13 m/s
same,speed of sound,[1]; 1148 K,1223 ± 13 m/s
same,speed of sound,[1]; 1165 K,1212 ± 13 m/s
same,speed of sound,[1]; 1184 K,1188 ± 13 m/s
same,speed of sound,[1]; 1218 K,1190 ± 13 m/s
[Cl][Nd]([Cl])[Cl] [neodymium(III) chloride] + [Cl-].[Cs+],speed of sound,"[2]; 913 K, x1 = 0.45",1110 ± 12 m/s
same,speed of sound,"[2]; 968 K, x1 = 0.45",1080 ± 12 m/s
same,speed of sound,"[2]; 998 K, x1 = 0.8",1205 ± 13 m/s
same,speed of sound,"[2]; 1008 K, x1 = 0.45",1053 ± 12 m/s
same,speed of sound,"[2]; 1043 K, x1 = 0.8",1172 ± 13 m/s
same,speed of sound,"[2]; 1061 K, x1 = 0.45",1026 ± 11 m/s
same,speed of sound,"[2]; 1083 K, x1 = 0.8",1148 ± 13 m/s
same,speed of sound,"[2]; 1112 K, x1 = 0.45",998 ± 11 m/s
same,speed of sound,"[2]; 1123 K, x1 = 0.8",1129 ± 12 m/s
same,speed of sound,"[2]; 1138 K, x1 = 0.45",980 ± 11 m/s
same,speed of sound,"[2]; 1143 K, x1 = 0.8",1115 ± 12 m/s
same,speed of sound,"[2]; 1147 K, x1 = 0.25",969 ± 11 m/s
same,speed of sound,"[2]; 1169 K, x1 = 0.25",961 ± 11 m/s
same,speed of sound,"[2]; 1188 K, x1 = 0.25",953 ± 11 m/s
same,speed of sound,"[2]; 1207 K, x1 = 0.25",949 ± 11 m/s
same,speed of sound,"[2]; 1226 K, x1 = 0.25",941 ± 11 m/s
same,speed of sound,"[2]; 1245 K, x1 = 0.25",934 ± 11 m/s
[Cl][Nd]([Cl])[Cl] [neodymium(III) chloride] + [Cl-].[K+],speed of sound,"[2]; 1007 K, x1 = 0.75",1275 ± 14 m/s
same,speed of sound,"[2]; 1037 K, x1 = 0.75",1259 ± 14 m/s
same,speed of sound,"[2]; 1053 K, x1 = 0.37",1283 ± 14 m/s
same,speed of sound,"[2]; 1058 K, x1 = 0.25",1370 ± 15 m/s
same,speed of sound,"[2]; 1063 K, x1 = 0.5",1259 ± 14 m/s
same,speed of sound,"[2]; 1067 K, x1 = 0.75",1240 ± 13 m/s
same,speed of sound,"[2]; 1076 K, x1 = 0.25",1355 ± 14 m/s
same,speed of sound,"[2]; 1080 K, x1 = 0.37",1260 ± 14 m/s
same,speed of sound,"[2]; 1088 K, x1 = 0.5",1240 ± 13 m/s
same,speed of sound,"[2]; 1096 K, x1 = 0.25",1340 ± 14 m/s
same,speed of sound,"[2]; 1110 K, x1 = 0.37",1250 ± 13 m/s
same,speed of sound,"[2]; 1110 K, x1 = 0.75",1225 ± 13 m/s
same,speed of sound,"[2]; 1118 K, x1 = 0.25",1315 ± 14 m/s
same,speed of sound,"[2]; 1124 K, x1 = 0.5",1230 ± 13 m/s
same,speed of sound,"[2]; 1128 K, x1 = 0.37",1241 ± 13 m/s
same,speed of sound,"[2]; 1139 K, x1 = 0.75",1210 ± 13 m/s
same,speed of sound,"[2]; 1145 K, x1 = 0.37",1223 ± 13 m/s
same,speed of sound,"[2]; 1146 K, x1 = 0.25",1300 ± 14 m/s
same,speed of sound,"[2]; 1150 K, x1 = 0.5",1214 ± 13 m/s
same,speed of sound,"[2]; 1163 K, x1 = 0.75",1197 ± 13 m/s
same,speed of sound,"[2]; 1173 K, x1 = 0.37",1212 ± 13 m/s
same,speed of sound,"[2]; 1176 K, x1 = 0.25",1256 ± 14 m/s
same,speed of sound,"[2]; 1178 K, x1 = 0.37",1200 ± 13 m/s
same,speed of sound,"[2]; 1185 K, x1 = 0.5",1190 ± 13 m/s
same,speed of sound,"[2]; 1186 K, x1 = 0.25",1260 ± 14 m/s
same,speed of sound,"[2]; 1203 K, x1 = 0.5",1186 ± 13 m/s
same,speed of sound,"[2]; 1213 K, x1 = 0.25",1234 ± 13 m/s
[Cl][Nd]([Cl])[Cl] [neodymium(III) chloride] + [Cl-].[Li+],speed of sound,"[2]; 995 K, x1 = 0.5",1395 ± 15 m/s
same,speed of sound,"[2]; 1033 K, x1 = 0.5",1374 ± 15 m/s
same,speed of sound,"[2]; 1108 K, x1 = 0.5",1350 ± 14 m/s
same,speed of sound,"[2]; 1133 K, x1 = 0.5",1331 ± 14 m/s
same,speed of sound,"[2]; 1167 K, x1 = 0.5",1326 ± 14 m/s
[Cl][Nd]([Cl])[Cl] [neodymium(III) chloride] + [Cl-].[Na+],speed of sound,"[2]; 1009 K, x1 = 0.365",1450 ± 15 m/s
same,speed of sound,"[2]; 1048 K, x1 = 0.365",1418 ± 15 m/s
same,speed of sound,"[2]; 1053 K, x1 = 0.2",1520 ± 16 m/s
same,speed of sound,"[2]; 1063 K, x1 = 0.75",1290 ± 14 m/s
same,speed of sound,"[2]; 1073 K, x1 = 0.2",1502 ± 16 m/s
same,speed of sound,"[2]; 1073 K, x1 = 0.75",1285 ± 14 m/s
same,speed of sound,"[2]; 1074 K, x1 = 0.365",1389 ± 15 m/s
same,speed of sound,"[2]; 1090 K, x1 = 0.44",1350 ± 14 m/s
same,speed of sound,"[2]; 1100 K, x1 = 0.365",1368 ± 15 m/s
same,speed of sound,"[2]; 1103 K, x1 = 0.2",1465 ± 16 m/s
same,speed of sound,"[2]; 1103 K, x1 = 0.44",1340 ± 14 m/s
same,speed of sound,"[2]; 1103 K, x1 = 0.75",1270 ± 14 m/s
same,speed of sound,"[2]; 1115 K, x1 = 0.44",1325 ± 14 m/s
same,speed of sound,"[2]; 1123 K, x1 = 0.44",1330 ± 14 m/s
same,speed of sound,"[2]; 1127 K, x1 = 0.2",1476 ± 16 m/s
same,speed of sound,"[2]; 1128 K, x1 = 0.365",1354 ± 14 m/s
same,speed of sound,"[2]; 1133 K, x1 = 0.44",1325 ± 14 m/s
same,speed of sound,"[2]; 1133 K, x1 = 0.75",1256 ± 14 m/s
same,speed of sound,"[2]; 1143 K, x1 = 0.2",1447 ± 15 m/s
same,speed of sound,"[2]; 1143 K, x1 = 0.44",1322 ± 14 m/s
same,speed of sound,"[2]; 1150 K, x1 = 0.44",1307 ± 14 m/s
same,speed of sound,"[2]; 1154 K, x1 = 0.75",1250 ± 13 m/s
same,speed of sound,"[2]; 1155 K, x1 = 0.365",1357 ± 14 m/s
same,speed of sound,"[2]; 1173 K, x1 = 0.2",1420 ± 15 m/s
same,speed of sound,"[2]; 1175 K, x1 = 0.365",1340 ± 14 m/s
same,speed of sound,"[2]; 1176 K, x1 = 0.75",1240 ± 13 m/s
